ChEMBL document CHEMBL3414527, “Engineering potent and selective analogues of GpTx-1, a tarantula venom peptide antagonist of the Na(V)1.7 sodium channel” (J Med Chem, 2015)
Bridge positions count the residues as written; N and C are the ends. Peptide text beside a SMILES is read from it.

Assays:
[1] = molecular target: Sodium channel protein type 5 subunit alpha (Homo sapiens, UniProt Q14524); test: Inhibition of human NaV1.5 at -140 mV holding potential by whole-cell patch clamp assay
[2] = molecular target: Sodium channel protein type 9 subunit alpha (Homo sapiens, UniProt Q15858); test: Inhibition of human NaV1.7 at -140 mV holding potential by whole-cell patch clamp assay
Sodium channel protein type 9 subunit alpha, sequence (Q15858 whole entry): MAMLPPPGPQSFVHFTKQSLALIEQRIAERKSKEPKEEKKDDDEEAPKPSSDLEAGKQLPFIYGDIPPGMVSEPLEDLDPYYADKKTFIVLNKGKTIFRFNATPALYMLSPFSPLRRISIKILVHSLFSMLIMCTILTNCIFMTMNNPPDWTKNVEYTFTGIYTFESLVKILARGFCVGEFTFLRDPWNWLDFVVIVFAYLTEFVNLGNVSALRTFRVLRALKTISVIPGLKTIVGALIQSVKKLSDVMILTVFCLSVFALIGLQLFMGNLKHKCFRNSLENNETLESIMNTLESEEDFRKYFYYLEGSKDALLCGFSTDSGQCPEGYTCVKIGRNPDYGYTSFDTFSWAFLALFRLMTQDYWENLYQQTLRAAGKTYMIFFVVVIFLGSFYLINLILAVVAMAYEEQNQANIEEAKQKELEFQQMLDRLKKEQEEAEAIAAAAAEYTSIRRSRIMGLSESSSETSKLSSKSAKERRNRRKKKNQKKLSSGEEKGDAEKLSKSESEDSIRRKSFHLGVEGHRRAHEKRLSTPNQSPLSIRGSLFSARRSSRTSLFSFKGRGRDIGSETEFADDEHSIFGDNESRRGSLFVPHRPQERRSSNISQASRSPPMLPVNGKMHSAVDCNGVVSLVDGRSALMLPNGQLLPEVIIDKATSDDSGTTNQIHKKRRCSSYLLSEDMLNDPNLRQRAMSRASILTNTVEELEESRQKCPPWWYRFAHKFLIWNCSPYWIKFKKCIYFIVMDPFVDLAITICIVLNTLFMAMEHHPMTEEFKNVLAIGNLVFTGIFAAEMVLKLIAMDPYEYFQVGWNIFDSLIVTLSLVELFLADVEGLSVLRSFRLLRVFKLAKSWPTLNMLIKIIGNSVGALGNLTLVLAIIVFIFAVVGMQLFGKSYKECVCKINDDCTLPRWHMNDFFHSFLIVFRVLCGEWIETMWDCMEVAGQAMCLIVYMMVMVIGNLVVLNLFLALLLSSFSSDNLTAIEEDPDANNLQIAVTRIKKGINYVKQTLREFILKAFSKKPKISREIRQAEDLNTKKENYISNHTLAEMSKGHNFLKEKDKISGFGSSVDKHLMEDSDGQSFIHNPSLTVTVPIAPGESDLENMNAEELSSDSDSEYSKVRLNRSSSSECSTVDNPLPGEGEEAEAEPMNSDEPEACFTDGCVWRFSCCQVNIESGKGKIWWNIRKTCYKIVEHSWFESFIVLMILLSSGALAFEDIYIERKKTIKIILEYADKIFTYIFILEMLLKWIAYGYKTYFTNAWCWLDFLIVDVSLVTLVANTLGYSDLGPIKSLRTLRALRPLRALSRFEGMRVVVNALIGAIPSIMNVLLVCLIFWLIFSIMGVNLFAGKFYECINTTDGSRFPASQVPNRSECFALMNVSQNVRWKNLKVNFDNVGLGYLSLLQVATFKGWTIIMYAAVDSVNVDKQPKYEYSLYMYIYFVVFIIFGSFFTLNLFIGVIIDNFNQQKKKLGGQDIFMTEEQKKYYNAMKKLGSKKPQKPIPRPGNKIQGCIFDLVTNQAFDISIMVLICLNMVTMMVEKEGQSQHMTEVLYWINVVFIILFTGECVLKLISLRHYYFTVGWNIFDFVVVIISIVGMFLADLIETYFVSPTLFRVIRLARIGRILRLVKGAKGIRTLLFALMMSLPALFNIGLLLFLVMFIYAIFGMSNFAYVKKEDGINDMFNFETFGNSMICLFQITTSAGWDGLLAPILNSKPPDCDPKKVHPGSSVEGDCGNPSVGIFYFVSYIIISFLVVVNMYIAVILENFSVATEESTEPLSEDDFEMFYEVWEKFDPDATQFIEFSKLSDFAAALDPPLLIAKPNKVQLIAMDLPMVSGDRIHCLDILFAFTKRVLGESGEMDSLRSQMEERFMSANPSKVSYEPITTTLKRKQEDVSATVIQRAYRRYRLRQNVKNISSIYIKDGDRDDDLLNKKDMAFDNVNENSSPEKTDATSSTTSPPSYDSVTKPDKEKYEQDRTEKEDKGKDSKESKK

Sodium channel protein type 5 subunit alpha, sequence (Q14524 whole entry): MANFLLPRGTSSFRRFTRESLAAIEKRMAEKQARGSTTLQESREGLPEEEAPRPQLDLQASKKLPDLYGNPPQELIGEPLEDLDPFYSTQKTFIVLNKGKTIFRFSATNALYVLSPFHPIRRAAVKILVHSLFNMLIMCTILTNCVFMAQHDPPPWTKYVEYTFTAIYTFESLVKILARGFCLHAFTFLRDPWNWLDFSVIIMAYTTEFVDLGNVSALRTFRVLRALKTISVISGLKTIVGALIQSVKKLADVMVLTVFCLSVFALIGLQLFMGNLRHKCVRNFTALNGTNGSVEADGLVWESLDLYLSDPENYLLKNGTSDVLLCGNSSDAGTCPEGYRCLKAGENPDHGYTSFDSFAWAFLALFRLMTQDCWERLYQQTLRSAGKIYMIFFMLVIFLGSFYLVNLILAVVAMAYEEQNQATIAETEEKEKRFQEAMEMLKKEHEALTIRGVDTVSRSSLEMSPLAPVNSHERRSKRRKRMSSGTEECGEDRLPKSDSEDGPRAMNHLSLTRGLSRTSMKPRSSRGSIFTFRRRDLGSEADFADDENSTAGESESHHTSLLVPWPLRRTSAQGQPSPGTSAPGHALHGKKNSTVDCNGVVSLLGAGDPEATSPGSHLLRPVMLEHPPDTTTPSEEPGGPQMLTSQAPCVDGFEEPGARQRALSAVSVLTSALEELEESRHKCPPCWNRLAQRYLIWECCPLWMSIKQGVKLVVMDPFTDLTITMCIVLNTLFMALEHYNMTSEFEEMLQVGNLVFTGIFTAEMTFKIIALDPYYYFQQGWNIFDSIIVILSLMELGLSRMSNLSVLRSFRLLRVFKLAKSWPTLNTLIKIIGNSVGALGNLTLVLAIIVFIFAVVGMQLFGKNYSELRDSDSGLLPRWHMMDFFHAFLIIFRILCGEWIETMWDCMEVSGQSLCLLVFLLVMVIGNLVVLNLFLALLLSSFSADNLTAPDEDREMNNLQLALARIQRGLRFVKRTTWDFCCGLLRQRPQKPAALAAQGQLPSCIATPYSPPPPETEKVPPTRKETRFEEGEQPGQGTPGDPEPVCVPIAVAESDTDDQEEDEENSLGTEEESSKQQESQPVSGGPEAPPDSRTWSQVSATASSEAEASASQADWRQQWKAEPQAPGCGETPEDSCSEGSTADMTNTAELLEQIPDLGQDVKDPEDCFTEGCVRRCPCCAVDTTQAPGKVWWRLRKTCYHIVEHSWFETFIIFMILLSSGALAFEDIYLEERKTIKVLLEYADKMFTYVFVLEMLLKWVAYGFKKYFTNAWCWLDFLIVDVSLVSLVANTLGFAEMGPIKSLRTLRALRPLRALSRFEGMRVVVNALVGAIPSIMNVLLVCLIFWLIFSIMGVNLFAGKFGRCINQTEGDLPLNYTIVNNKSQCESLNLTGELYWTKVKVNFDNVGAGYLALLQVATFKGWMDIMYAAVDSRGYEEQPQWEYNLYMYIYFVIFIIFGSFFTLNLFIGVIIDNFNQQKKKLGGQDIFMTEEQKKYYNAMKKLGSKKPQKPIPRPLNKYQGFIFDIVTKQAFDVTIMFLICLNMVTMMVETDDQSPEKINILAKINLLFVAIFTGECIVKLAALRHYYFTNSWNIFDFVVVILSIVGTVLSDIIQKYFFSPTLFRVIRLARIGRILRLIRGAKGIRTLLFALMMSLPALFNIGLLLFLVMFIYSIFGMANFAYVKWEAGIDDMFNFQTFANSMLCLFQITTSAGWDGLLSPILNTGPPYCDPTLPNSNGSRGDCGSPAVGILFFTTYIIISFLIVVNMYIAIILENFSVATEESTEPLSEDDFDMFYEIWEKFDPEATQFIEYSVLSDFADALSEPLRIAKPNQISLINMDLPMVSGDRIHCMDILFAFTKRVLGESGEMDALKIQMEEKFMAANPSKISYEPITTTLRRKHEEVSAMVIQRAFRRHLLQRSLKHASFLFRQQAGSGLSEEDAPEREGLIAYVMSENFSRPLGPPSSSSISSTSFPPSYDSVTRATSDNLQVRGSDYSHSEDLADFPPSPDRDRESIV

SMILES | IC50 [1] | IC50 [2]
CC[C@H](C)[C@@H]1NC(=O)[C@@H]2CSSC[C@@H]3NC(=O)[C@H](C(C)C)NC(=O)[C@H](CC(C)C)NC(=O)[C@H](CC(N)=O)NC(=O)[C@@H]4CCCN4C(=O)[C@H](CCCNC(=N)N)NC(=O)[C@H](CSSC[C@H](NC(=O)[C@@H](N)CC(=O)O)C(=O)N[C@@H](CC(C)C)C(=O)NCC(=O)N[C@@H](Cc4ccccc4)C(=O)N[C@@H](CCSC)C(=O)N[C@@H](CCCNC(=N)N)C(=O)N[C@@H](CCCCN)C(=O)N2)NC(=O)[C@H](CSSC[C@@H](C(=O)N[C@@H](CCCCN)C(=O)N[C@@H](Cc2ccc(O)cc2)C(=O)N[C@H](C(=O)N[C@@H](Cc2ccccc2)C(N)=O)C(C)C)NC(=O)[C@H](Cc2c[nH]c4ccccc24)NC(=O)[C@H](CCCCN)NC(=O)[C@H](Cc2cnc[nH]2)NC(=O)[C@H](CCC(=O)O)NC(=O)[C@H](CCCNC(=N)N)NC(=O)[C@H](CO)NC3=O)NC(=O)[C@H](CCCCN)NC(=O)[C@H](CC(=O)O)NC(=O)[C@H](CC(N)=O)NC(=O)[C@H](CC(=O)O)NC(=O)[C@@H]2CCCN2C1=O (H-DCLGFMRKCIPDNDKCCRPNLVCSREHKWCKYVF-NH2; disulfide 2-17, 9-23, 16-30) | > 10000 nM | 34 nM
CC[C@H](C)[C@@H]1NC(=O)[C@@H]2CSSC[C@@H]3NC(=O)[C@H](C(C)C)NC(=O)[C@H](CC(C)C)NC(=O)[C@H](CC(N)=O)NC(=O)[C@@H]4CCCN4C(=O)[C@H](CCCNC(=N)N)NC(=O)[C@H](CSSC[C@H](NC(=O)[C@@H](N)CC(=O)O)C(=O)N[C@@H](CC(C)C)C(=O)NCC(=O)N[C@@H](Cc4ccccc4)C(=O)N[C@@H](CC(C)C)C(=O)N[C@@H](CCCNC(=N)N)C(=O)N[C@@H](CCCCN)C(=O)N2)NC(=O)[C@H](CSSC[C@@H](C(=O)N[C@@H](CCCCN)C(=O)N[C@@H](Cc2ccc(O)cc2)C(=O)N[C@H](C(=O)N[C@@H](Cc2ccccc2)C(N)=O)C(C)C)NC(=O)[C@H](Cc2c[nH]c4ccccc24)NC(=O)[C@H](CCCCN)NC(=O)[C@H](Cc2cnc[nH]2)NC(=O)[C@H]([C@@H](C)O)NC(=O)[C@H](CCCNC(=N)N)NC(=O)[C@H](CO)NC3=O)NC(=O)[C@H](CCCCN)NC(=O)[C@H](CC(=O)O)NC(=O)[C@H](CC(N)=O)NC(=O)[C@H](CC(=O)O)NC(=O)[C@@H]2CCCN2C1=O (H-DCLGFLRKCIPDNDKCCRPNLVCSRTHKWCKYVF-NH2; disulfide 2-17, 9-23, 16-30) | > 10000 nM | 24 nM
CC[C@H](C)[C@@H]1NC(=O)[C@@H]2CSSC[C@@H]3NC(=O)[C@H](C(C)C)NC(=O)[C@H](CC(C)C)NC(=O)[C@H](CC(N)=O)NC(=O)[C@@H]4CCCN4C(=O)[C@H](CCCNC(=N)N)NC(=O)[C@H](CSSC[C@H](NC(=O)[C@@H](N)CC(=O)O)C(=O)N[C@@H](CC(C)C)C(=O)NCC(=O)N[C@@H](Cc4ccccc4)C(=O)N[C@@H](CCSC)C(=O)N[C@@H](CCCNC(=N)N)C(=O)N[C@@H](C)C(=O)N2)NC(=O)[C@H](CSSC[C@@H](C(=O)N[C@@H](CCCCN)C(=O)N[C@@H](Cc2ccc(O)cc2)C(=O)N[C@H](C(=O)N[C@@H](Cc2ccccc2)C(N)=O)C(C)C)NC(=O)[C@H](Cc2c[nH]c4ccccc24)NC(=O)[C@H](CCCCN)NC(=O)[C@H](Cc2cnc[nH]2)NC(=O)[C@H]([C@@H](C)O)NC(=O)[C@H](CCCNC(=N)N)NC(=O)[C@H](CO)NC3=O)NC(=O)[C@H](CCCCN)NC(=O)[C@H](CC(=O)O)NC(=O)[C@H](CC(N)=O)NC(=O)[C@H](CC(=O)O)NC(=O)[C@@H]2CCCN2C1=O (H-DCLGFMRACIPDNDKCCRPNLVCSRTHKWCKYVF-NH2; disulfide 2-17, 9-23, 16-30) | > 5000 nM | 500 nM
CC[C@H](C)[C@@H]1NC(=O)[C@@H]2CSSC[C@@H]3NC(=O)[C@H](C(C)C)NC(=O)[C@H](CC(C)C)NC(=O)[C@H](CC(N)=O)NC(=O)[C@@H]4CCCN4C(=O)[C@H](CCCNC(=N)N)NC(=O)[C@H](CSSC[C@H](NC(=O)[C@@H](N)CC(=O)O)C(=O)N[C@@H](CC(C)C)C(=O)NCC(=O)N[C@@H](Cc4ccccc4)C(=O)N[C@@H](CCSC)C(=O)N[C@@H](CCCNC(=N)N)C(=O)N[C@@H](CCCCN)C(=O)N2)NC(=O)[C@H](CSSC[C@@H](C(=O)N[C@@H](CCCCN)C(=O)N[C@@H](Cc2ccc(O)cc2)C(=O)N[C@H](C(=O)N[C@@H](C)C(N)=O)C(C)C)NC(=O)[C@H](Cc2c[nH]c4ccccc24)NC(=O)[C@H](CCCCN)NC(=O)[C@H](Cc2cnc[nH]2)NC(=O)[C@H]([C@@H](C)O)NC(=O)[C@H](CCCNC(=N)N)NC(=O)[C@H](CO)NC3=O)NC(=O)[C@H](CCCCN)NC(=O)[C@H](CC(=O)O)NC(=O)[C@H](CC(N)=O)NC(=O)[C@H](CC(=O)O)NC(=O)[C@@H]2CCCN2C1=O (H-DCLGFMRKCIPDNDKCCRPNLVCSRTHKWCKYVA-NH2; disulfide 2-17, 9-23, 16-30) | > 5000 nM | 1200 nM
CC[C@H](C)[C@@H]1NC(=O)[C@@H]2CSSC[C@@H]3NC(=O)[C@H](C(C)C)NC(=O)[C@H](CC(C)C)NC(=O)[C@H](CC(N)=O)NC(=O)[C@@H]4CCCN4C(=O)[C@H](CCCNC(=N)N)NC(=O)[C@H](CSSC[C@H](NC(=O)[C@@H](N)CC(=O)O)C(=O)N[C@@H](CC(C)C)C(=O)NCC(=O)N[C@@H](Cc4ccccc4)C(=O)N[C@@H](CCSC)C(=O)N[C@@H](CCCNC(=N)N)C(=O)N[C@@H](CCCCN)C(=O)N2)NC(=O)[C@H](CSSC[C@@H](C(=O)N[C@@H](CCCCN)C(=O)N[C@@H](Cc2ccc(O)cc2)C(=O)N[C@H](C(=O)N[C@@H](Cc2ccccc2)C(N)=O)C(C)C)NC(=O)[C@H](Cc2c[nH]c4ccccc24)NC(=O)[C@H](CCCCN)NC(=O)[C@H](Cc2cnc[nH]2)NC(=O)[C@H](Cc2cnc[nH]2)NC(=O)[C@H](CCCNC(=N)N)NC(=O)[C@H](CO)NC3=O)NC(=O)[C@H](CCCCN)NC(=O)[C@H](CC(=O)O)NC(=O)[C@H](CC(N)=O)NC(=O)[C@H](CC(=O)O)NC(=O)[C@@H]2CCCN2C1=O (H-DCLGFMRKCIPDNDKCCRPNLVCSRHHKWCKYVF-NH2; disulfide 2-17, 9-23, 16-30) |  | 4 nM
CC[C@H](C)[C@@H]1NC(=O)[C@@H]2CSSC[C@@H]3NC(=O)[C@H](C(C)C)NC(=O)[C@H](CC(C)C)NC(=O)[C@H](CC(N)=O)NC(=O)[C@@H]4CCCN4C(=O)[C@H](CCCNC(=N)N)NC(=O)[C@H](CSSC[C@H](NC(=O)[C@@H](N)CC(=O)O)C(=O)N[C@@H](CC(C)C)C(=O)NCC(=O)N[C@@H](Cc4ccccc4)C(=O)N[C@@H](CCSC)C(=O)N[C@@H](CCCNC(=N)N)C(=O)N[C@@H](CCCCN)C(=O)N2)NC(=O)[C@H](CSSC[C@@H](C(=O)N[C@@H](CCCCN)C(=O)N[C@@H](Cc2ccc(O)cc2)C(=O)N[C@H](C(=O)N[C@@H](Cc2ccccc2)C(N)=O)C(C)C)NC(=O)[C@H](C)NC(=O)[C@H](CCCCN)NC(=O)[C@H](Cc2cnc[nH]2)NC(=O)[C@H]([C@@H](C)O)NC(=O)[C@H](CCCNC(=N)N)NC(=O)[C@H](CO)NC3=O)NC(=O)[C@H](CCCCN)NC(=O)[C@H](CC(=O)O)NC(=O)[C@H](CC(N)=O)NC(=O)[C@H](CC(=O)O)NC(=O)[C@@H]2CCCN2C1=O (H-DCLGFMRKCIPDNDKCCRPNLVCSRTHKACKYVF-NH2; disulfide 2-17, 9-23, 16-30) | > 5000 nM | > 5000 nM
CC[C@H](C)[C@@H]1NC(=O)[C@@H]2CSSC[C@@H]3NC(=O)[C@H](C(C)C)NC(=O)[C@H](CC(C)C)NC(=O)[C@H](CC(N)=O)NC(=O)[C@@H]4CCCN4C(=O)[C@H](CCCNC(=N)N)NC(=O)[C@H](CSSC[C@H](NC(=O)[C@@H](N)CC(=O)O)C(=O)N[C@@H](CC(C)C)C(=O)NCC(=O)N[C@@H](Cc4ccccc4)C(=O)N[C@@H](CCSC)C(=O)N[C@@H](CCCNC(=N)N)C(=O)N[C@@H](CCCCN)C(=O)N2)NC(=O)[C@H](CSSC[C@@H](C(=O)N[C@@H](CCCCN)C(=O)N[C@@H](Cc2ccc(O)cc2)C(=O)N[C@H](C(=O)N[C@@H](Cc2ccccc2)C(N)=O)C(C)C)NC(=O)[C@H](Cc2c[nH]c4ccccc24)NC(=O)[C@H](CCCNC(=N)N)NC(=O)[C@H](Cc2cnc[nH]2)NC(=O)[C@H]([C@@H](C)O)NC(=O)[C@H](CCCNC(=N)N)NC(=O)[C@H](CO)NC3=O)NC(=O)[C@H](CCCCN)NC(=O)[C@H](CC(=O)O)NC(=O)[C@H](CC(N)=O)NC(=O)[C@H](CC(=O)O)NC(=O)[C@@H]2CCCN2C1=O |  | 8 nM
CC[C@H](C)[C@@H]1NC(=O)[C@@H]2CSSC[C@@H]3NC(=O)[C@H](C(C)C)NC(=O)[C@H](CC(C)C)NC(=O)[C@H](CC(N)=O)NC(=O)[C@@H]4CCCN4C(=O)[C@H](CCCNC(=N)N)NC(=O)[C@H](CSSC[C@H](NC(=O)[C@@H](N)CC(=O)O)C(=O)N[C@@H](CC(C)C)C(=O)NCC(=O)N[C@@H](Cc4ccc(-c5ccccc5)cc4)C(=O)N[C@@H](CCSC)C(=O)N[C@@H](CCCNC(=N)N)C(=O)N[C@@H](CCCCN)C(=O)N2)NC(=O)[C@H](CSSC[C@@H](C(=O)N[C@@H](CCCCN)C(=O)N[C@@H](Cc2ccc(O)cc2)C(=O)N[C@H](C(=O)N[C@@H](Cc2ccccc2)C(N)=O)C(C)C)NC(=O)[C@H](Cc2c[nH]c4ccccc24)NC(=O)[C@H](CCCCN)NC(=O)[C@H](Cc2cnc[nH]2)NC(=O)[C@H]([C@@H](C)O)NC(=O)[C@H](CCCNC(=N)N)NC(=O)[C@H](CO)NC3=O)NC(=O)[C@H](CCCCN)NC(=O)[C@H](CC(=O)O)NC(=O)[C@H](CC(N)=O)NC(=O)[C@H](CC(=O)O)NC(=O)[C@@H]2CCCN2C1=O |  | 86 nM
